Laboratory results taken from ChEMBL document CHEMBL1201862, “PubChem BioAssay data set” (2004).
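Method: 48-hour compound exposure of cells in 96-well plates, five concentrations, linear interpolation of endpoints. Abbreviation: GI50, concentration required for 50% inhibition of growth.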 Calls of active or inactive are those of the source. Cut-off read from the data, not from the text of the source: active = GI50 up to about 1.1 µM and inactive = higher.

What was measured:
Assay in all cases: NCI tumour cell line growth inhibition, 48 h
RXF 393 = test system: RXF 393
SK-MEL-5 = test system: SK-MEL-5
SW-620 = test system: SW-620
K562 = test system: K562
HL-60 = test system: HL-60
ACHN = test system: ACHN
786-0 = test system: 786-0
HOP-62 = test system: HOP-62
NCI-H23 = test system: NCI-H23
KM12 = test system: KM12
SK-MEL-2 = test system: SK-MEL-2
OVCAR-4 = test system: OVCAR-4
SF-268 = test system: SF-268
CAKI-1 = test system: CAKI-1

Measured: GI50

COC1(OC)CC2C(=O)N(Cc3ccccc3)C1CC2S(=O)(=O)c1ccccc1 (stereo unspecified)
inactive: RXF 393 > 100 µM | SK-MEL-5 > 100 µM | SW-620 > 100 µM | K562 > 100 µM | HL-60 > 100 µM | ACHN > 100 µM | 786-0 > 100 µM | HOP-62 > 100 µM | NCI-H23 > 100 µM | KM12 > 100 µM | SK-MEL-2 > 100 µM

O=C(NCCNCCO)N/N=C/c1ccccc1
inactive: RXF 393 > 100 µM | SK-MEL-5 > 100 µM | SW-620 > 100 µM | K562 > 100 µM | HL-60 79.3 µM | ACHN > 100 µM | 786-0 > 100 µM | OVCAR-4 > 100 µM | NCI-H23 > 100 µM | SF-268 > 100 µM | KM12 > 100 µM | SK-MEL-2 > 100 µM

CO[C@@]12CC(=O)/C(=C(O)\C=C\c3ccccc3)C(=O)[C@]1(OC)Cc1ccccc1O2
inactive: RXF 393 18.8 µM | SK-MEL-5 36.5 µM | SW-620 31.3 µM | K562 33.7 µM | ACHN 25.4 µM | 786-0 24.7 µM | OVCAR-4 53.8 µM | HOP-62 21.6 µM | NCI-H23 20.6 µM | SF-268 27.7 µM | KM12 19.8 µM | SK-MEL-2 36.8 µM

Cn1cc(NC(=O)c2cc(NC(=O)CCCCCCCCC(=O)Nc3cc(C(=O)Nc4cc(C(=O)NCCC(N)N)n(C)c4)n(C)c3)cn2C)cc1C(=O)NCCC(=N)N
inactive: RXF 393 21.2 µM | SK-MEL-5 4.74 µM | SW-620 19.6 µM | K562 13.4 µM | ACHN 17.9 µM | 786-0 21.9 µM | OVCAR-4 34.7 µM | HOP-62 33 µM | NCI-H23 33.9 µM | SF-268 20.5 µM | KM12 18.5 µM | CAKI-1 22.5 µM | SK-MEL-2 19.2 µM

Cc1c(O)c(O)cc[n+]1C1OC(CO)C(O)C1O (stereo unspecified)
inactive: RXF 393 > 100 µM | SW-620 > 100 µM | K562 > 100 µM | ACHN > 100 µM | 786-0 > 100 µM | OVCAR-4 > 100 µM | NCI-H23 > 100 µM | SF-268 > 100 µM | KM12 > 100 µM | CAKI-1 > 100 µM | SK-MEL-2 > 100 µM

Cc1cccc(Cl)c1NC(=O)c1cccc([N+](=O)[O-])c1O
inactive: RXF 393 16.7 µM | SW-620 59 µM | K562 36.7 µM | HL-60 > 10 µM | ACHN 31.9 µM | 786-0 56 µM | OVCAR-4 24.5 µM | HOP-62 20.1 µM | NCI-H23 28.1 µM | SF-268 31.8 µM | KM12 21.3 µM | CAKI-1 46.1 µM
